Measured values as given in PMC4405029 (Bioorganic & medicinal chemistry letters, 2015).

Experiments:
Assay in all cases: Electrical cell-substrate impedance sensing
Type in all cases: cell-based
[1] = test system: recombinant EP4 receptor; conditions: ECIS, EP4 expressed in CHO cells
[2] = biological target: T1, recombinant EP1 receptor (Homo sapiens, UniProt P34995); conditions: ECIS, EP1 expressed in CHO cells
T1 sequence (P34995 1-402): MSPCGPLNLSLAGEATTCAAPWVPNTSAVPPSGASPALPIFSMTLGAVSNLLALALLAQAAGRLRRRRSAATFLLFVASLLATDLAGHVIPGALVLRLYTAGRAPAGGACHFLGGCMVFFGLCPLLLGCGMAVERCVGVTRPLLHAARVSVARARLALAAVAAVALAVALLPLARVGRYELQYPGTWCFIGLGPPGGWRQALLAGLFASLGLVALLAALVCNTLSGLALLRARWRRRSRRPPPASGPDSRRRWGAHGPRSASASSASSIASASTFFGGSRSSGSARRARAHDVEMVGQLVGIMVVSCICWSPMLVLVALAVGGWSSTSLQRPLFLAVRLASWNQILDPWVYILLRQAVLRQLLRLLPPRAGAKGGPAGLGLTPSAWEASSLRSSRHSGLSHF

[3] = biological target: T2, recombinant EP3 receptor (Homo sapiens, UniProt P43115); conditions: ECIS, EP3 expressed in CHO cells
T2 sequence (P43115 1-390): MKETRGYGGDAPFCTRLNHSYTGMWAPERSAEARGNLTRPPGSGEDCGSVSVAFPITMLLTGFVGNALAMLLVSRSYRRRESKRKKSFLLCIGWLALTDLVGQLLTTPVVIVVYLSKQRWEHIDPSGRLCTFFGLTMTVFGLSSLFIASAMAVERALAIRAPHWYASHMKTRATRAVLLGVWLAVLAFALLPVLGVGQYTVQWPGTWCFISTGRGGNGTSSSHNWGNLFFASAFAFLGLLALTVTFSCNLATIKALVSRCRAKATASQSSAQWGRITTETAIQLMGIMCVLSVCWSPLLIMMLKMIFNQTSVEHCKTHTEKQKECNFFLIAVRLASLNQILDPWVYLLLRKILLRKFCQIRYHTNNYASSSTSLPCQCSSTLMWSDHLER

Row | Activation of EP1 receptor (cell impedance) [2] | Activation of EP3 receptor (cell impedance) [3] | SMILES | Activation of EP4 receptor (cell impedance) [1]
1 | did not activate | did not activate | O=C(CCC/C=C\C[C@H]1C(=O)C[C@@H](O)[C@@H]1/C=C/[C@@H](O)CCc1ccccc1)NCCO [12a] | did not activate
2 | did not activate | did not activate | CCCCC[C@H](O)/C=C/[C@H]1[C@H](O)CC(=O)[C@@H]1C/C=C\CCCC(=O)NCCO [PGE2-EA, prostaglandin-ethanolamide] | did not activate

Row | SMILES | Activation of EP1 receptor (cell impedance) [2] | Activation of EP3 receptor (cell impedance) [3] | Activation of EP4 receptor (cell impedance) [1]
3 | CCCCC[C@H](O)/C=C/[C@H]1[C@H](O)CC(=O)[C@@H]1C/C=C\CCCC(=O)O [PGE2] | rapid change in impedance | rapid change in impedance | rapid change in impedance
